The target of data set [1] is T1, myosin light chain kinase (MLCK) (Gallus gallus, UniProt P11799).
T1 construct: chicken gizzard MLCK prepared as described; from tissue; host or cells: chicken gizzard
The data set can be described thus: Reconstituted enzyme assay, MLCK. The conditions noted are these: γ-[32P]-ATP, synthetic peptide substrate; mean ± SEM; read-out: IC50 MLCK. In kind it is biochemical, chicken. The procedure:
(§1) [table] […] The rationale for using BV-2 cells in high throughput screening was the paucity of well-characterized human microglial cell lines, and the relevant activation responses and signaling pathways reflect those seen in human and rodent primary microglial cultures. Compounds were tested for their effects on NO accumulation in conditioned media of LPS-stimulated BV-2 cells by measurement of nitrite production by the Griess assay as a read-out for iNOS activity, as described previously. Stock solutions of compounds were prepared in dimethylsulfoxide (DMSO) or in water. When stock solutions were prepared in DMSO, control wells contained the same final concentration of DMSO as the compound-containing wells. […] Solutions of compounds for cell treatments were diluted to a 10× final concentration by dilution of stock solutions in αMEM media. […] Reconstituted enzyme assays were done as described s. The sources of protein kinases were: bovine heart PKA from Promega, rat brain PKC from Calbiochem, rat CaMKII from New England Biolabs, chicken gizzard MLCK prepared as described, and a p38 MAP kinase kit containing recombinant Xenopus p38-MAPK and its human substrate from Upstate Biotechnology. The catalytic domains of these protein kinases retain a high level of amino acid sequence identity across mammalian species, consistent with the lack of documented major differences across species for the in vitro catalytic activity of a given kinase.

Data set [2] addresses T2, CaMKII (Rattus norvegicus, UniProt P11275).
T2 construct: purchased New England Biolabs
Put plainly: Reconstituted enzyme assay, CaMKII. In kind it is biochemical. The conditions noted are these: γ-[32P]-ATP, synthetic peptide substrate; mean ± SEM; read-out: IC50 CaMKII. The protocol: as §1

The target in data set [3] is death associated protein kinase (DAPK) (Homo sapiens, UniProt P53355). The data set can be described thus: Enzyme assay, DAPK. In kind it is biochemical. Conditions: read-out: DAPK IC50. The protocol: Therefore, compound MW01-026Z was selected as a starting point for variations on component A (Table 6). […] However, none of the A variations appeared to improve the activity and selectivity profile of CompoundMW01-026Z. (For purposes of illustration, only, component G was maintained throughout as an acyl moiety, while component R2 was varied as shown. All such compositions are available using the synthetic techniques described herein. Enzyme assays were conducted per procedures described elsewhere herein.) A more comprehensive structure activity relationship is summarized in Table 7, below.
Chain of death associated protein kinase (DAPK) (P53355 whole entry, species assumed): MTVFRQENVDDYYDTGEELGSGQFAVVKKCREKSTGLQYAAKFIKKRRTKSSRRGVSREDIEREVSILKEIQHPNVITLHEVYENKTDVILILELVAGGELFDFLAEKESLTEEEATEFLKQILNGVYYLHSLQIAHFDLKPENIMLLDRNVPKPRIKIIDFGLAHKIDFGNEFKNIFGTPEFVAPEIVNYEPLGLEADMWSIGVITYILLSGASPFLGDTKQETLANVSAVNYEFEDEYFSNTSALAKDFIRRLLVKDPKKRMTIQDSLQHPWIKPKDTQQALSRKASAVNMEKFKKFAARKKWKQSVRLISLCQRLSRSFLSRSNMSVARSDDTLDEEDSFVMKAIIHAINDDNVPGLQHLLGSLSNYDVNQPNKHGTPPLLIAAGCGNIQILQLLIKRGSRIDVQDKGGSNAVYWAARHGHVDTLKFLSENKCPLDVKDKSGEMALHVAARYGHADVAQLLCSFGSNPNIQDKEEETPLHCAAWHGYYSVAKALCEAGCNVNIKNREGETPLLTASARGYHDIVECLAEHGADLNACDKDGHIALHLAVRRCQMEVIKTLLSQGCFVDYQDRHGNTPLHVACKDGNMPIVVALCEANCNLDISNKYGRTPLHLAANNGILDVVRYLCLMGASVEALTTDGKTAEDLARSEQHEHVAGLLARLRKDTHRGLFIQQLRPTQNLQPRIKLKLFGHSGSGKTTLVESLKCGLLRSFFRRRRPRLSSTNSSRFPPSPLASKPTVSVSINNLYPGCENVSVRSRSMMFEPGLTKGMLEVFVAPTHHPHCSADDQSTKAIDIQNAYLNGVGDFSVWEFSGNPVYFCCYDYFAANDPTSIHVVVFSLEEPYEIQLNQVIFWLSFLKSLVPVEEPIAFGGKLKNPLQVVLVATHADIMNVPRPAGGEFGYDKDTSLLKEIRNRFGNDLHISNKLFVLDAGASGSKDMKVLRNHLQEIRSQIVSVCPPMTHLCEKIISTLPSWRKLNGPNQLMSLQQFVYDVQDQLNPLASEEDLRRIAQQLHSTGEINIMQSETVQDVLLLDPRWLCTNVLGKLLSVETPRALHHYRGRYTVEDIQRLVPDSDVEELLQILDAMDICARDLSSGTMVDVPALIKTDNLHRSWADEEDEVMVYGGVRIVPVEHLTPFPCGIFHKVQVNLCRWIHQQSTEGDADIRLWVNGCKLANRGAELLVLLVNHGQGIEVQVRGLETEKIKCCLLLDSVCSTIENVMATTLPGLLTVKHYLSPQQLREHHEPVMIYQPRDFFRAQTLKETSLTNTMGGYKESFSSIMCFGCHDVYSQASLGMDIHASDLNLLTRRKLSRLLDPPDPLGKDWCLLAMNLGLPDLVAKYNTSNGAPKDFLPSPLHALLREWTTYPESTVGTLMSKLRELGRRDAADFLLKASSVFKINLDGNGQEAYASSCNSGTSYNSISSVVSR
With reference to the compositions of Table 3 and the enzyme assay techniques described elsewhere herein, Table 7 provides structural activity relationships observed, in accordance with this invention.

Data set [4] addresses T3, p38 MAPK (Xenopus laevis, UniProt P47812).
T3 construct: purchased Upstate Biotechnology
Put plainly: Reconstituted enzyme assay, p38 MAPK. In kind it is biochemical. The conditions noted are these: γ-[32P]-ATP, synthetic peptide substrate. The protocol:
as §1, with “The catalytic domains of these protein kinases retain a high level of amino acid sequence identity across mammalian species, consistent with the lack of documented major differences across species for the in vitro catalytic activity of a given kinase.” left out

In data set [5] the test system is cell culture. Put plainly: Cytotoxicity in cell culture. It is filed as cell-based. Conditions: over the entire dose range of inhibitor. From the text: The inhibition of iNOS and IL-1β production by MW01-070C, however, is not limited to LPS stimulation. […] The rationale for examination of Aβ stimulation is its involvement as an initiating event in models of AD initiation and progression. The stimulation by Aβ is seen (FIG. 6) with preparations of the Aβ peptide (see Experimental Procedures) that are known to have neurotoxic activity [Hu, J., Akama, K. T., Krafft, G. A., Chromy, B. A., and Van Eldik, L. J. (1998) Brain Res. 785, 195-206; Lambert, M. P. Barlow, A. K., Chromy, B. A., Edwards, C., Freed, R., Liosatos, M., Morgan, T. E., Rozovsky, I., Trommer, B., Viola, K. L., Wals, P., Zhang, C., Finch, C. E., Kraffk, G. A., and Klein, W. L. (1998) Proc. Natl. Acad. Sci. USA 95, 6448-6453]. The rationale for examination of S100 stimulation is its presence as an astrocyte protein that can function as an autocrine and paracrine cytokine, and its increased production in AD and other neuroinflammatory related disorders [Griffin, W. S. T., Stanley, L. C., Ling, C., White, L., MacLeod, V., Perrot, L. J., White, C. L., III, and Araoz, C. (1989) Proc. Natl. Acad. Sci. USA 86, 7611-7615; Hu, J., Castets, F., Guevara, J. L., and Van Eldik, L. J. (1996) J. Biol. Chem. 271, 2543-2547; Donato, R. (1999) Biochim. Biophys. Acta 1450, 191-231; Van Eldik, L. J., and Griffin, W. S. T. (1994) Biochim. Biophys. Acta 1223, 398-403]. […]

T2 sequence (P11275 1-325 limits assumed): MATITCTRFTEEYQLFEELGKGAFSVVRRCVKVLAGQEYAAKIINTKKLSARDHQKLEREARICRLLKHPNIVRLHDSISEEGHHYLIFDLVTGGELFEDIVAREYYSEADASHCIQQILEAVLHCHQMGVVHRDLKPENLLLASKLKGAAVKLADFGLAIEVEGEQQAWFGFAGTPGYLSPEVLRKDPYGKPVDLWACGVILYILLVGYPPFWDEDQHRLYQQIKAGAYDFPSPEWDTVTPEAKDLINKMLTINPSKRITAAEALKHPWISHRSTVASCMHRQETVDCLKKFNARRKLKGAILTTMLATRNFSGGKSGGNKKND
T1 sequence (P11799 935-1906): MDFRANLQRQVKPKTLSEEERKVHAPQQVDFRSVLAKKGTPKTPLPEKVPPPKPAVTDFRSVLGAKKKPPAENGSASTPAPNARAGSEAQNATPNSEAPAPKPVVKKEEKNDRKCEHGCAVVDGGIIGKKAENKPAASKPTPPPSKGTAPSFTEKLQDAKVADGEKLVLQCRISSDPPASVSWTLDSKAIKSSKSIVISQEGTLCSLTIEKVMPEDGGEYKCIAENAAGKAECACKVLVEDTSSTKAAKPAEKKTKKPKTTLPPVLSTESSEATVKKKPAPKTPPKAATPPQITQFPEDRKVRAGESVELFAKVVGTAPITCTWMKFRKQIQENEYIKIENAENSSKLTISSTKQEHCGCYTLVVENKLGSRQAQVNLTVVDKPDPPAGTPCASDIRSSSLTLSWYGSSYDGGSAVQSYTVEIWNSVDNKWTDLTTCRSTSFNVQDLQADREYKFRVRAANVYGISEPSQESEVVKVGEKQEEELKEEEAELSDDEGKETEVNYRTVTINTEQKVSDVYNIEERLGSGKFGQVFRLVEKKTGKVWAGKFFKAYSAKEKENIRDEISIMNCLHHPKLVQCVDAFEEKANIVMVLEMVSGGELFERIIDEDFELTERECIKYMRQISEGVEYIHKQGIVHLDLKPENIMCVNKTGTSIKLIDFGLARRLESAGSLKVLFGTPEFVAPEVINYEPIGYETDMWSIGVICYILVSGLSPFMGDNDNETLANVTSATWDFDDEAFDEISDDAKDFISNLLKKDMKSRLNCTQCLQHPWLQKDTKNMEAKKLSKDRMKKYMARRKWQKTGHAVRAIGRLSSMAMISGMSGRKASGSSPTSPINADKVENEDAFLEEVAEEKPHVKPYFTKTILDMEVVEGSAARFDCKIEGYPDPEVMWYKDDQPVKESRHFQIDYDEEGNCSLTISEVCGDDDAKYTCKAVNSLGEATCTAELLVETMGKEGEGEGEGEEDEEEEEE
T3 sequence (P47812 whole entry): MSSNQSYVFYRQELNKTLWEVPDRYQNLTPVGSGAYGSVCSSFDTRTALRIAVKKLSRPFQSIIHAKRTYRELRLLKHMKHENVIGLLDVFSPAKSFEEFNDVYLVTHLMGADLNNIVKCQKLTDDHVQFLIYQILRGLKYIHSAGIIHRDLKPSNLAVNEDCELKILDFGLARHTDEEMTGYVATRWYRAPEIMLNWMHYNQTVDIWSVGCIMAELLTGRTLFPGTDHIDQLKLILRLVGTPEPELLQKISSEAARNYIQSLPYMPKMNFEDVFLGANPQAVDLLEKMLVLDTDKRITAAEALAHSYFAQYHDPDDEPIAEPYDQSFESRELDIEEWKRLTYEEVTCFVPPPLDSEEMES

As to `N=c1cc2c(nn1CCCCCCCCCCC(=O)N1CCN(c3ncccn3)CC1)-c1ccccc1CC2` [MW01-070C], the IC50 was greater than 100 µM in data set [1], 9.7 ± 1.9 µM in data set [2], 80 to 100 µM in data set [3] and greater than 100 µM in data set [4]. Besides, the “cytotoxicity in cell culture” value in data set [5] was “no evidence of cytotoxicity”.

Broadly, the IC50 is the concentration that inhibits the measured activity by half.

The record behind these values is US7888357B2, “Anti-inflammatory and protein kinase inhibitor compositions and related methods for downregulation of detrimental cellular responses and inhibition of cell death” (Northwestern University, priority 2001, dated 2011).
